From patent publication US5914339A, “Substituted 1,3-benzodioxoles” (American Home Products Corporation, priority 1997, dated 1999) come the findings set out here.

pEC50: −log10 of the molar value. Where a name gives a salt, the structure may show the parent alone.

In one experiment the target is human β2 adrenergic receptor (Homo sapiens, UniProt P07550). The experiment in a line: cell-based.
Chain of human β2 adrenergic receptor (P07550 whole entry): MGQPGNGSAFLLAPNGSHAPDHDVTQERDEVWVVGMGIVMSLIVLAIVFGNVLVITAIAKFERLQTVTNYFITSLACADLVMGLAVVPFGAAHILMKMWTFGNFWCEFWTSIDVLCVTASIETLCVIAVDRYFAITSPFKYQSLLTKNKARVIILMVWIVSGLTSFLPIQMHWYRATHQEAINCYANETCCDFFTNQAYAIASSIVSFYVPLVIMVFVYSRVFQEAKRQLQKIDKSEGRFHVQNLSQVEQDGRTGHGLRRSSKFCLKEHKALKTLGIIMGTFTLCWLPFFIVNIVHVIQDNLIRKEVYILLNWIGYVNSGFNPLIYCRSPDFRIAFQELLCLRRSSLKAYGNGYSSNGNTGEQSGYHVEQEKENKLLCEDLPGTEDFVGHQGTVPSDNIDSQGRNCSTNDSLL
Settings: not given
The protocol:
The activity of the test compounds on human β-adrenergic receptors was determined with Chinese hamster ovary (CHO) cells transfected with human β2, or β1 adrenergic receptors. Agonist activity is indicated by increased cAMP levels in the CHO cells. Selectivity of the test compounds for the β3 receptor was assessed by comparison with results in β2 and β1 adrenergic receptor transfected cells.
1). Chinese hamster ovary (CHO) cells transfected with human β2, or β1 adrenergic receptors were used in the assay.
2). Cells were grown to confluent conditions in 24 well plates.
3). Drugs were dissolved in DMSO at a concentration of 10 μM.
4). Cells were incubated with drug at 10 nM concentration for 10 min at 37° C.
5). Cell cAMP concentrations were assayed using a scintillation proximity assay kit from Amersham Corp., Chicago, Ill.
6). Activities for the test compounds are expressed as a percentage of the isoproterenol response.
Production of the CHO cells transfected with human β2, or β1 adrenergic receptors, and compound test procedures utilizing the CHO cells, are described by Emorine et al. in their article "Molecular Characterization of the Human Beta3 -Adrenergic Receptor", Science 1989, 245(8), 1118-1121 and by Muzzin et al. in the article "An Adipose Tissue-Specific Beta3 -Adrenergic Receptor", J. Biol. Chem.1991, 266, 24053-24058.
^a Human β receptors expressed in Chinese hamster ovary cells,
compounds tested at 10 nM, results expressed as % of isoproterenol
activity (increase in cAMP) at 10 μM. EC50 (μM) values
determined for selected compounds.
For the compound `CC(Cc1ccc2c(c1)OC(C(=O)O)(C(=O)OCC1CC1)O2)NCC(O)c1cccc(Cl)c1` (centres unmarked) [Example 69, 5-{2-[2-(3-Chloro-phenyl)-2-hydroxy-ethylamino]-propyl}-benzo[1,3]dioxole-2,2-dicarboxylic acid cyclopropylmethyl ester], the pEC50 (in general, the negative decadic logarithm of the EC50, by convention in mol/L) is 7.10.

The experiment is the same for the next values; noted with them: 10 min; compounds tested at 10 nM, isoproterenol at 10 μM; CHO cells, 10 min at 37° C; read-out: β2: % of isoproterenol activity (increase in cAMP).
`CC(Cc1ccc2c(c1)OC(C(=O)OC(C)OC(=O)C(C)(C)C)(C(=O)OC(C)OC(=O)C(C)(C)C)O2)NCC(O)c1cccc(Cl)c1` (centres unmarked) [Example 52]: the activation at 0.01 µM was 2%.

In the case of `CCC(=O)OC(C)OC(=O)C1(C(=O)OC(C)OC(=O)CC)Oc2ccc(CC(C)NCC(O)c3cccc(Cl)c3)cc2O1` (centres unmarked) [Example 51, 5-{2-[2-(3-Chloro-phenyl)-2-hydroxyethylamino]propyl}benzo[1,3] dioxole-2,2-dicarboxylic acid bis-(1-propionyloxy-ethyl) ester], the activation at 0.01 µM was found to be 0%.

Regarding `CC(Cc1ccc2c(c1)OC(C(=O)OC(C)OC(=O)c1ccccc1)(C(=O)OC(C)OC(=O)c1ccccc1)O2)NCC(O)c1cccc(Cl)c1` (centres unmarked) [Example 57, 5-{2-[2-(3-Chloro-phenyl)-2-hydroxyethylamino]propyl}benzo[1,3] dioxole-2,2-dicarboxylic acid bis-(benzoyloxy-ethyl) ester], the activation at 0.01 µM amounted to 0%.

As for `CC(C)CCC(=O)OCOC(=O)C1(C(=O)OCOC(=O)CCC(C)C)Oc2ccc(CC(C)NCC(O)c3cccc(Cl)c3)cc2O1` (centres unmarked) [Example 47, 5-{2-[2-(3-Chloro-phenyl)-2-hydroxyethylamino]propyl}benzo[1,3] dioxole-2,2-dicarboxylic acid bis-(4-methyl-pentanoyloxymethyl) ester], the activation at 0.01 µM amounted to 0%.

Turning to `C[C@H](Cc1ccc2c(c1)OC(C(=O)OCCCOCc1ccccc1)(C(=O)OCCCOCc1ccccc1)O2)NC[C@H](O)c1cccc(Cl)c1` [Example 104, 5-{(2R)-2-[(2R)-2-(3-Chloro-phenyl)-2-hydroxy-ethylamino]-propyl}benzo[1,3]dioxole-2,2-dicarboxylic acid bis-(3-benzyloxy-propyl)ester], the activation at 0.01 µM is 2%.

Consider `C[C@H](Cc1ccc2c(c1)OC(C(=O)OCC1CCCCO1)(C(=O)OCC1CCCCO1)O2)NC[C@H](O)c1cccc(Cl)c1` (stereo partly drawn) [Example 90, 5-{(2R)-2-[(2R)-2-(3-Chloro-phenyl)-2-hydroxy-ethylamino]-propyl}-benzo[1,3]dioxole-2,2-dicarboxylic aicd bis-(tetrahydro-pyran-2-ylmethyl) ester], for which the activation at 0.01 µM came to 7%.

Consider `CCC(CC)COC(=O)C1(C(=O)OCC(CC)CC)Oc2ccc(C[C@@H](C)NC[C@H](O)c3cccc(Cl)c3)cc2O1` [Example 74, 5-{(2R)-2-[(2R)-2-(3-Chloro-phenyl)-2-hydroxy-ethylamino]-propyl}-benzo[1,3]dioxole-2,2-dicarboxylic acid bis-(2-ethylbutyl) ester], for which the activation at 0.01 µM came out at 0%.

With `CCCCCCCCCCCCOC(=O)C1(C(=O)OCCCCCCCCCCCC)Oc2ccc(CC(C)NCC(O)c3cccc(Cl)c3)cc2O1` (centres unmarked) [Example 20, 5-{2-[2-(3-Chloro-phenyl)-2-hydroxy-ethylamino]-propyl}-benzo[1,3]dioxole-2,2-dicarboxylic acid didodecyl ester], the activation at 0.01 µM was determined as 0%.

Regarding `CC(Cc1ccc2c(c1)OC(C(=O)O)(C(=O)O)O2)N1COC(c2cccc(Cl)c2)C1` (centres unmarked) [Example 66], the activation at 0.01 µM came to 3%.

Regarding `CC(Cc1ccc2c(c1)OC(C(=O)OCCOC(C)(C)C)(C(=O)OCCOC(C)(C)C)O2)NCC(O)c1cccc(Cl)c1` (centres unmarked) [Example 6, 5-{2-[2-(3-Chloro-phenyl)-2-hydroxy-ethylamino]-propyl}-benzo[1,3]dioxole-2,2-dicarboxylic acid bis-(2-tert-butoxy-ethyl) ester], the activation at 0.01 µM was determined as 3%.

On to `CC(Cc1ccc2c(c1)OC(C(=O)OCOC(=O)C1CCCCC1)(C(=O)OCOC(=O)C1CCCCC1)O2)NCC(O)c1cccc(Cl)c1` (centres unmarked) [Example 50, 5-{2-[2-(3-Chloro-phenyl)-2-hydroxyethylamino]propyl}benzo[1,3] dioxole-2,2-dicarboxylic acid bis-cyclohexanecarbonyloxymethyl ester], for which the activation at 0.01 µM is 0%.

As for `CC(Cc1ccc2c(c1)OC(C(=O)OCC1CCCCC1)(C(=O)OCC1CCCCC1)O2)NCC(O)c1cccc(Cl)c1` (centres unmarked) [Example 34, 5-{2-[2-(3-Chloro-phenyl)-2-hydroxy-ethylamino]-propyl}-benzo[1,3]dioxole-2,2-dicarboxylic acid bis-cyclohexylmethyl ester], the activation at 0.01 µM turned out to be 2%.

Consider `CCCC(=O)OCOC(=O)C1(C(=O)OCOC(=O)CCC)Oc2ccc(CC(C)NCC(O)c3cccc(Cl)c3)cc2O1` (centres unmarked) [Example 44, 5-{2-[2-(3-Chloro-phenyl)-2-hydroxyethylamino]propyl}benzo[1,3] dioxole-2,2-dicarboxylic acid bis-butyryloxymethyl ester], for which the activation at 0.01 µM amounted to 0%.

Regarding `CCCCCCCCCCOC(=O)C1(C(=O)OCCCCCCCCCC)Oc2ccc(CC(C)NCC(O)c3cccc(Cl)c3)cc2O1` (centres unmarked) [Example 19, 5-{2-[2-(3-Chloro-phenyl)-2-hydroxy-ethylamino]-propyl}-benzo[1,3]dioxole-2,2-dicarboxylic acid bis-decyl ester], the activation at 0.01 µM is 2%.

Consider `CC(Cc1ccc2c(c1)OC(C(=O)OCOC(=O)C(C)(C)C)(C(=O)OCOC(=O)C(C)(C)C)O2)NCC(O)c1cccc(Cl)c1` (centres unmarked) [Example 49, 5-{2-[2-(3-Chloro-phenyl)-2-hydroxyethylamino]propyl}benzo[1,3] dioxole-2,2-dicarboxylic acid bis-(2,2-dimethyl-propionyloxymethyl) ester], for which the activation at 0.01 µM is 4%.

On to `CC(Cc1ccc2c(c1)OC(C(=O)OCCC1CCCC1)(C(=O)OCCC1CCCC1)O2)NCC(O)c1cccc(Cl)c1` (centres unmarked) [Example 41, 5-{2-[2-(3-Chloro-phenyl)-2-hydroxy-ethylamino]-propyl}-benzo[1,3]dioxole-2,2-dicarboxylic acid bis-(2-cyclopentyl-ethyl) ester], for which the activation at 0.01 µM worked out at 22%.

In the case of `C[C@H](Cc1ccc2c(c1)OC(C(=O)OCC13CC4CC(CC(C4)C1)C3)(C(=O)OCC13CC4CC(CC(C4)C1)C3)O2)NC[C@H](O)c1cccc(Cl)c1` (stereo partly drawn) [Example 77, 5-{(2R)-2-[(2R)-2-(3-Chloro-phenyl)-2-hydroxy-ethylamino]-propyl}-benzo[1,3]dioxole-2,2-dicarboxylic acid bis-adamantan-1-ylmethyl ester], the activation at 0.01 µM was found to be 5%.

For the compound `COC(=O)C(C)OC(=O)C1(C(=O)OC(C)C(=O)OC)Oc2ccc(CC(C)NCC(O)c3cccc(Cl)c3)cc2O1` (centres unmarked) [Example 26, 5-{2-[2-(3-Chloro-phenyl)-2-hydroxy-ethylamino]-propyl}-benzo[1,3]dioxole-2,2-dicarboxylic acid bis-(1-methoxycarbonyl-ethyl) ester], the activation at 0.01 µM came out at 7%.

The same experiment, now with this note: CHO, 10 min, read-out: β2: % of isoproterenol activity (increase in cAMP).
Regarding `CC(Cc1ccc2c(c1)OC(C(=O)OC1CCCCC1)(C(=O)OC1CCCCC1)O2)NCC(O)c1cccc(Cl)c1` (centres unmarked) [Example 10, 5-{2-[2-(3-Chloro-phenyl)-2-hydroxy-ethylamino]-propyl}-benzo[1,3]dioxole-2,2-dicarboxylic acid bis-(cyclohexyl) ester hydrochloride salt], the activation at 0.01 µM is 0%.
